This is an account of results in ChEMBL document CHEMBL4261645, “Isolation, leishmanicidal evaluation and molecular docking simulations of piperidine alkaloids from Senna spectabilis” (Bioorg Med Chem, 2018).

In brackets after ≈: the same amount, converted by molar mass.

By IC50 is commonly meant the concentration at which inhibition is half-maximal. Usually CC50 stands for the concentration giving 50% cytotoxicity.

One data set has as its system Leishmania amazonensis. In words: Leishmanicidal activity against Leishmania amazonensis PH8 promastigotes after 48 hrs by spectrophotometric analysis. The data set is classed as functional, organism-based. The settings on record: PH8, 48 h.
A short description of data set [1]: Cytotoxicity against African green monkey Vero cells after 48 hrs by resazurin dye-based spectrophotometric analysis. The data set is classed as cell-based. Particulars: chlorocebus sabaeus. (In general: Alamar Blue is a resazurin reagent that responds to reducing activity.)
For a further data set, the system named is Leishmania major. In words: Leishmanicidal activity against Leishmania major MHOM/SU/1973/5-ASKH promastigotes after 48 hrs by cell counting method. The data set is classed as functional, organism-based.
Data set [2] is described as follows: Log10 selectivity index, ratio of CC50 for African green monkey Vero cells to IC50 for Leishmania amazonensis PH8 promastigotes. Particulars: Vero cells versus Leishmania amazonensis PH8 promastigotes.

In the case of `CC(=O)CCCCCCCCCCCC[C@H]1CC[C@@H](O)[C@@H](C)N1`, the IC50 is 15.8 µg/mL (≈ 48.6 µM) with Leishmania amazonensis and 24.9 µg/mL (≈ 76.5 µM) in the data set with Leishmania major. This compound also registered a CC50 at 48 h in data set [1] of 66.7 µg/mL (≈ 205 µM). The log10 selectivity index in data set [2] amounted to 0.62.
Compound `CC(=O)CCCCCCCCCCCC[C@H]1CC[C@@H](OC(C)=O)[C@@H](C)N1` registered an IC50 in the data set on Leishmania amazonensis of 25.9 to 26.3 µg/mL (≈ 70.6 to 71.6 µM). In data set [1], this compound had a CC50 at 48 h of 255 to 274 µg/mL (≈ 694 to 744 µM). In data set [2], the log10 selectivity index was in the range of 0.99 to 1.02.
For `CC(=O)CCCCCCCCCC[C@H]1CC[C@@H](OC(C)=O)[C@@H](C)N1`, in that order: 30.2 to 30.7 µg/mL (≈ 89.1 to 90.5 µM), 357 to 361 µg/mL (≈ 1050 to 1060 µM) and 1.06 to 1.07.
For `C[C@@H]1[C@H](O)[C@@H](C)/C=C/C=C/C=C/C=C/C=C/C=C/C=C/[C@H](O[C@@H]2O[C@H](C)[C@@H](O)[C@H](N)[C@@H]2O)C[C@@H]2O[C@](O)(C[C@@H](O)C[C@@H](O)[C@H](O)CC[C@@H](O)C[C@@H](O)CC(=O)O[C@H]1C)C[C@H](O)[C@H]2C(=O)O` [AMPHOTERICIN B], 0.29 µg/mL (≈ 0.314 µM) corresponded to half-maximal inhibition in the data set on Leishmania amazonensis (IC50).
On to `CC(=O)CCCCCCCCCC[C@H]1CC[C@@H](O)[C@@H](C)N1` [CASSINE], for which the IC50 in the data set on Leishmania amazonensis came out at 25.2 µg/mL (≈ 84.6 µM); with Leishmania major, 1.6 µg/mL (≈ 5.38 µM). For the same compound, the CC50 at 48 h in data set [1] was 249 µg/mL (≈ 838 µM). In data set [2], the log10 selectivity index was found to be 0.99.
